According to patent US20090232748A1 (ViraTox, L.L.C., priority 2003, published 2009):
Where two headings read alike, the source gives them in different places.

Legend:
[1] = test system: Feline Infectious Peritonitis Type 2 (“FIP Type 2”) corona virus; test: Virucidal bioassay: FIP-2 corona virus suspension exposed to test article, then titrated in CrFK cell culture (TCID50, Reed and Muench); format: cell-based, Feline Infectious Peritonitis Type 2 corona virus; details: for FIP-2 Titer / % Reduction / Reduction in Titer: 300 seconds exposure; for FIP-2 Titer: control titer 6.70 logs/ml
Source text: (§1) Untreated virus served as controls. […] They were then observed microscopically for CPE inhibition, reporting titers as TCID 50/ml, also expressed as plaque forming units (pfu's). The corrected virus titer (# positives×dilution) is reported in log/ml. Virucidal activity is thus defined as the number of logs reduction of virus titer between the test article and the control (Reed and Muench, Am. J. Hyg. 27:493-497, 1938).

CrFK cell culture = test: Cell toxicity / cytopathic effect on host cells in the FIP-2 corona virus test; format: cell-based
Source text: as §1

[2] = test system: influenza A/Equi 2?Miami 1/63, ATCC VR517; test: Virucidal assay: influenza virus exposed to CPC solutions, titrated in MDCK cell culture (Reed and Muench); format: cell-based, Orthomyxoviridie virus (influenza A/Equi 2)
[3] = test system: MDCK (NBL-2)5 (ATCC type CCL-34) cell culture
FeLV retrovirus = details: for reduction in the viral titer: 300 seconds, titer 6.0 logs/ml
Experimental: (§2) FeLV retrovirus was gown in cell culture to a titer of 6.0 logs/ml.
(§3) Briefly, virus suspensions were exposed to three concentrations of CPC, 0.025%, 0.05%, and 0.10%, for 300 seconds. Untreated virus served as controls. At the end of the exposure, the virus was titrated in CrFK cell culture. Viral titration was accomplished at each test article concentration by seeding 0.1 ml of a serial dilution of treated virus to the CrFK cell culture. Serial dilutions were prepared from 10^−1 to 10^−8 of the original virus concentration, or five million/ml (6.7 log units) and each dilution then placed in each of four wells (replicates) of a 96 well microplate. The inoculated cells (80 μl per well) are then incubated at 37° C. in a CO2 incubator for five days.

[4] = test system: CrFK (ATCC type CCL-94) cell culture; test: Cytotoxicity of CPC in the FeLV test
Experimental: as §2, §3

pH of acid solutions = format: physicochemical; details: at 0.1%

Compound: CCCCCCCCCCCCCCCC[n+]1ccccc1 [CPC, Cetylpyridinium chloride]
- FIP-2 Titer ([1]; CPC 0.025%): 3.30 logs/ml
- % Reduction ([1]; CPC 0.05%): 99.97%
- Reduction in Titer ([1]; CPC 0.05%): >3.20 logs
- FIP-2 Titer ([1]; CPC 0.05%): <3.50 logs/ml
- % Reduction ([1]; CPC 0.10%): 99.97%
- Reduction in Titer ([1]; CPC 0.10%): >3.20 logs
- FIP-2 Titer ([1]; CPC 0.10%): <3.50 logs/ml
- adverse cytopathic effects (CrFK cell culture; 0.025% in solution, five minutes): without adverse cytopathic effects
- reduction to the virus titers ([2]; 0.025% (weight/volume) CPC with 0.1% citric acid (weight/volume)): greater than 3.5 log
- reduction to the virus titers ([2]; 0.05% (weight/volume) CPC with 0.1% citric acid (weight/volume)): greater than 3.5 log
- cytotoxic affects ([3]; test solutions containing 0.025% CPC and 0.1% citric acid): no observed cytotoxic affects
- reduction in the viral titer (FeLV retrovirus; CPC 0.025% in conjunction 0.1% citric acid): greater than 3.5 logs/ml
- reduction in the viral titer (FeLV retrovirus; CPC 0.025% without citric acid): greater than 3.5 logs/ml
- reduction of the FeLV virus (FeLV retrovirus; all three levels of CPC (0.025%, 0.05%, 0.10%) with or without citric acid at 0.1%): 100%
- cytotoxic ([4]; CPC 0.025%): not cytotoxic
- cytotoxic ([4]; CPC 0.05%): cytotoxic
- cytotoxic ([4]; CPC 0.1%): cytotoxic

Compound: Oc1cc(Cl)ccc1Oc1ccc(Cl)cc1Cl [Triclosan, triclosan]
- viral reduction ([1]; all three levels (0.025%, 0.05%, 0.10%)): no viral reduction
- cellular toxicity (CrFK cell culture; three concentrations as employed with CPC (0.025%, 0.05%, 0.10%)): cellular toxicity at all three levels

Compound: CC(=O)O [acetic acid]
- pH (pH of acid solutions): 2.3

Compound: O=C(O)CC(O)(CC(=O)O)C(=O)O [citric acid]
- pH (pH of acid solutions): 2.3
- cytotoxic ([3]; acid solution at 0.1%): neither solution was cytotoxic
